Patent US10821079B2, “PKC activators and combinations thereof” (Cognitive Research Enterprises, Inc., priority 2011, dated 2020)

Tests used:
[1] = Water maze spatial learning and memory task, visible platform test; type: in vivo, Wistar rats
Method: Water maze spatial learning and memory task (2 training trials/day for 4 days) was used to evaluate effects of oral DCPLA-ME on learning and memory in rats. A visible platform test was conducted after the end of the experiments to evaluate whether the treatment might result in an altered sensorimotor activity and escape motivation.
Male adult Wistar rats (200-250 g) were housed in a temperature-controlled (20-24° C.) room for a week, allowed free access to food and water, and kept on a 12-h light/dark cycle. Rats were anesthetized with sodium pentobarbital (60 mg/kg i.p) and placed in a stereotactic apparatus (Kopf Instruments, Tujunga, Calif.). The core temperature of rats was monitored and kept constant (38.0±0.5° C.) with warming light and pad. Two stainless steel guide cannulas were placed with the tips positioned at the coordinates (anterior-posterior, 0.5 mm; lateral, 1.5 mm; horizontal, 3.2 mm), under aseptic conditions. At the end of surgery and under appropriate anesthesia, rats received (s.c.) banamine (1 mg/kg) and ketoprofen (5 mg/kg) in lactate/Ringer's solution. A 7-day recovery period was allowed before any further experimentation.
On the first day of experiments, all rats were randomly assigned to different groups and swam for 2 min in a 1.5-(diameter)×0.6-m (depth) pool (22±1° C.). On the following day, rats were trained in a two-trial per day task for four consecutive days. Each training trial lasted for up to 2 min, during which rats learned to escape from water by finding a hidden platform that was placed at a fixed location and submerged 1 cm below the water surface. The navigation of the rats was tracked by a video camera. The escape latency and the route of rats' swimming across the pool to the platform were recorded. The quadrant test (1 min) was performed after removing the platform, 24 hr after the last training trial.
DCPLA-ME was administered at either 5.3 or 16.0 mg/kg (intragastric, 8 doses total of 2/week with the first 6 doses before the water maze task and the seventh and eighth doses 0.5 hr after the second trial of the first and third training day).

PKC-ε = PKC-ε level in primary neurons (immunofluorescence, Western Blot); type: cell-based, rat; settings: ASPD-treated primary neurons, 100 nM DCPLA-ME
Method: Cells were harvested in homogenizing buffer containing 10 mM Tris-Cl (pH 7.4), 1 mM PMSF (phenylmethylsulfonyl fluoride), 1 mM EGTA, 1 mM EDTA, 50 mM NaF, and 20 μM leupeptin and were lysed by sonication. The homogenate was centrifuged at 100,000×g for 15 min at 4° C. to obtain the cytosolic fraction (supernatant) and membrane (pellet). The pellet was resuspended in the homogenizing buffer by sonication. Protein concentration was measured using the Coomassie Plus (Bradford) Protein Assay kit (Pierce, USA). Following quantification, 20 μg of protein from each sample was subjected to SDS-PAGE analysis in 4-20% gradient Tris-Glycine gel (Invitrogen, USA). The separated protein was then transferred to nitrocellulose membrane. The membrane was blocked with BSA at room temperature for 15 min and was incubated with primary antibody over night at 4° C. After the incubation, it was washed three times with TBS-T (Tris Buffered saline-Tween 20) and further incubated with alkaline phosphatase conjugated secondary antibody (Jackson Immunoresearch Laboratories, USA) at 1:10,000 dilution for 45 min. The membrane was finally washed three times with TBS-T and developed using the 1-step NBT-BCIP substrate (Pierce, USA). Western Blot was imaged in the ImageQuant RT-ECL (GE Life Sciences, Piscataway, N.J.) and densitometric quantification was performed using the IMAL software (Blanchette Rockefeller Neurosciences Institute, Morgantown, W. Va.). For translocation assays, PKC activation was represented as the percentage of total protein in the membrane (membrane/cytosol+membrane).
Cells were grown in two chambered slides (Nunc, USA) at low density. For immunofluorescence staining, the cells were washed with PBS (pH 7.4) and fixed with 4% paraformaldehyde for 4 min. Following fixation, the cells were blocked and permeabilized with 5% serum and 0.3% Triton X 100 in 1×PBS for 30 min. […] Six individual fields at 63× oil lens magnification were analyzed for the mean fluorescence intensity (MFI) in each channel. […]

[2] = system: primary rat hippocampal neurons; experiment: Neuroprotection against ASPD induced toxicity, MTT, primary neurons; type: cell-based
Method: Viability of cells was measured by MTT assay. MTT (3-(4,5-Dimethylthiazol-2-yl)-2,5-diphenyltetrazolium bromide) is a tetrazolium salt that is cleaved to formazan by the succinate dehydrogenase, which is only active in viable cells. After solubilization of the formazan, the amount of dye can be quantified with a microplate reader at 570 nm along with a reference of 630 nm. For MTT assay, 5×104 primary rat hippocampal neurons from 18-day-old embryonic Sprague-Dawley rat brains were plated on each well of 24-well plates coated with poly-D-lysine. After treatment, the cells were washed with 1×PBS and were incubated with 200 μl of 1 mg/ml MTT solution (Sigma, USA) at 37° C. for 2 hr. Then the MTT-solution was removed and the cells were lysed with 200 μl isopropanol containing 0.04 M HCl and 160 mM NaOH for 10 min. Finally, the reading was done at 570 nm and 630 nm. All the samples were done in triplicates and the data was represented as the percentage of control.
All studies used 50 nM ASPDs. The viability of the cells were measured by the MTT assay.

Row | Compound | memory retention, target quadrant ratio vs control ([1]; 5.3 mg/kg intragastric) | water maze learning, escape latency vs control ([1]; 5.3 mg/kg intragastric) | water maze learning, escape latency vs control ([1]; 16.0 mg/kg intragastric) | visible platform test, sensorimotor ability and escape motivation ([1]; oral) | PKC-ε protein level (Western Blot, in words) (PKC-ε) | viability (Example 25) ([2]; 50 nM ASPDs alone (ASPD) or with the treatment named, 24 hr) | viability at 0.00027 µM ([2]; Rattus norvegicus, Hippocampal neuron, 20 h, read-out: viability restored in ASPD-treated primary neurons)
1 | CCCCCC1CC1CC1CC1CCCCCCCC(=O)OC (stereo not shown) [DCPLA-ME, methyl 8-(2-((2-pentylcyclopropyl)methyl)cyclopropyl)octanoate] | but not between the 5.3 mg/kg dose and control groups | did not reach a significant level | improved learning performance | did not affect rats' sensorimotor ability and motivation for an escape | restored the PKC-ε protein level to normal | – | –
2 | CCC/C=C/C=C/C(=O)O[C@H]1/C(=C/C(=O)OC)C[C@H]2C[C@H]([C@@H](C)O)OC(=O)C[C@H](O)C[C@@H]3C[C@H](OC(C)=O)C(C)(C)C(O)(C[C@@H]4C/C(=C/C(=O)OC)C[C@H](/C=C/C(C)(C)[C@]1(O)O2)O4)O3 [Bryostatin-1] | – | – | – | – | – | 71.38%±2.34 | 73.2 ± 3.6%
